Source: PubChem BioAssay (NCI)
Where “and” joins values, the source holds several entries; their conditions need not be identical. Equal entries are not always repeated.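 96-well plates; 48 h exposure; 5 concentrations. Endpoints by linear interpolation between flanking doses. Not reached: highest tested concentration assigned. At the GI50, growth is halved. Definition used: TGI = concentration required for complete inhibition of growth.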 Where a SMILES comes first, the peptide text is derived from it. The star is where a group is joined. Cbz = O=C(OCc1ccccc1)*

Each compound was assayed on NCI-H23 lung (assay: NCI anticancer screen, dose series, 48 h).
For `CCOC(=O)CCC(NC(=O)C(Cc1ccccc1)NC(=O)OCc1ccccc1)C(=O)OCC` (stereo not drawn) (Cbz-Phe-Glu(OEt)-OEt; configuration not given here), the TGI was 33.1 µM.
For `O=C1C(Br)=CC2(C=C1Br)CCNC1=C2C(=O)c2ncccc2C1=O`, the TGI was 1.65 µM.
With `CC(=O)OCC1OC(n2c(C)c(N=Nc3ccc(Cl)cc3)c(C)c(C#N)c2=S)C(OC(C)=O)C(OC(C)=O)C1OC(C)=O` (stereo unspecified) the TGI was greater than 100 µM.
In the case of `CCCCC1Cc2cc(O)ccc2-c2nc3cc(O)ccc3n21` (stereo unspecified) (tested in a mixture with another compound), the TGI was 72.5 µM.
`CC(NC(=O)c1c(O)[nH]c(=S)[nH]c1=O)c1ccc([N+](=O)[O-])cc1` (stereo unspecified) showed a TGI greater than 100 µM.
With `CC(=O)c1c(N=[N+]=[N-])c2cccc3c2n(c1=O)CCC3` the TGI was 45.6 µM.
Work on `Cn1nnnc1SC(F)(F)c1nc2ccccc2o1` yielded a TGI greater than 100 µM.
For `CCCCCCCCCCCC(=O)OC[C@@H](C[As](=O)(O)O)OC(=O)CCCCCCCCCCC`, the TGI was 17.8 µM.
With `C/C=C\C(CC(=O)NCC(=O)c1c[nH]c2ccccc12)CC(=O)OC` (stereo unspecified) the TGI was greater than 100 µM.
`CC(=O)c1ccc2c(c1)C(=O)c1sc(C(C)=O)cc1C2=O` was tested, and the GI50 was 0.607 µM and the TGI was 2.6 µM and 5.35 µM.
`O=[N+]([O-])c1c(F)c(F)c2c(c1F)N(CCCCCl)c1ccccc1S2` showed a TGI of 21.7 µM.
In the case of `Cc1ccnc2c1C(=O)C1=C(OC(C)(C)CC1O)C2=O` (stereo unspecified), the TGI was 4.82 µM.
Compound `CN1CCc2c(sc3[nH]c(=S)[nH]c(=S)c23)C1` has a TGI greater than 100 µM.
In the case of `CCOC(=O)c1c(OCC)[nH]c(=O)c(C(c2cccs2)c2c(O)c(C(=O)OCC)c(OCC)[nH]c2=O)c1O`, the TGI was 82.3 µM.
For `CC(=O)Nc1c(C(=N)C#N)ncn1CCO`, the TGI was greater than 100 µM.
With `O=P1(Cc2ccccc2)N(Cc2ccccc2)[C@@H]2CCCC[C@H]2N1Cc1ccccc1` the TGI was 23.2 µM.
`CN1CCCOC(c2ccc(Cl)cc2)O1` (stereo unspecified) was tested, and the TGI was greater than 100 µM.
`Cc1c2ccc3ccccc3c2c[n+]2ccccc12` was tested, and the TGI was 15.3 µM.
`O=C1/C(=C\c2cccc(Oc3ccccc3)c2)S(=O)(=O)C(c2ccccc2)N1c1cccc(Cl)c1` (stereo unspecified) was tested, and the TGI was greater than 100 µM.
`N#Cc1cc2c(cc1Cl)Sc1nnc(Nc3ccccc3)n1S2(=O)=O` showed a TGI of 3.26 µM.
Compound `COCn1cnc2c(=O)nc(SC)n(-c3ccccc3)c21` has a TGI greater than 100 µM.

Each compound was assayed on MCF7 breast (assay: NCI anticancer screen, dose series, 48 h).
`COc1ccc(CNc2nc(NC3CCCCC3)nc(NC3CCCCC3)n2)cc1` gave a TGI of 18.8 µM.
Work on `CN(C)CCCNc1ccc2ncn3c4ccc(O)cc4c(=O)c1c23` yielded a TGI of 1.27 µM.
`S=C1NCCN1C(=S)Nc1ccccc1` gave a TGI greater than 100 µM.
`CC1CC(Nc2ccc(Br)cc2)N(C(=O)c2ccc(Br)cc2)O1` (stereo unspecified) showed a TGI greater than 10 µM.
Compound `OC(C/C=N/N=C/CC(O)(C(F)(F)Cl)C(F)(F)Cl)(C(F)(F)Cl)C(F)(F)Cl` has a TGI greater than 10 µM.
For `COc1cc2c(cc1O)NC(=O)[C@@H]1CCCN1C2=O`, the TGI was greater than 100 µM.
With `O=C1C=C(Nc2ccc(S(=O)(=O)Nc3nccs3)cc2)c2ccccc2C1=O` the TGI was 36.1 µM.
For `C=CC1(CC[C@]2(c3ccc(OC)c(OC)c3)C=[N+]([O-])O[C@H](O[C@@H]3CCCC[C@H]3C(C)(C)c3ccccc3)C2)OCC(C)(C)CO1`, the TGI was greater than 42.4 µM.
`Oc1c(Br)ccc2cccnc12` was tested, and the TGI was 2.73 µM.
`O=c1[nH]c2nc3ccccc3c(=O)n2/c1=C/c1cccs1` was tested, and the TGI was greater than 100 µM.
`CC(=O)SC(C[N+](=O)[O-])c1ccc2c(c1)OCO2` (stereo unspecified) showed a TGI of 6.93 µM.
Work on `Cc1ccc(CSC(N)=Nc2ccccc2)cc1C` yielded a TGI of 37.9 µM.
Work on `C=C1CCCCCCCCC/C=C/1SCCCSC` yielded a TGI greater than 100 µM.
Compound `NCCCN(CCCN)CCc1cn(C(=O)c2ccccc2)cn1` has a TGI of 11.4 µM.
Work on `Cc1[nH]n(-c2nc(O)c(-c3ccccc3)c(=O)[nH]2)c(=O)c1CCO` yielded a TGI greater than 100 µM.
Compound `CC(NC(=O)Cc1ccccc1)NC(=O)C(C)C(=O)NCc1ccccc1` (stereo unspecified) has a TGI greater than 100 µM.
`CCOC(=O)CCC(NC(=O)C(Cc1ccccc1)NC(=O)OCc1ccccc1)C(=O)OCC` (stereo not drawn) (Cbz-Phe-Glu(OEt)-OEt; configuration not given here) showed a TGI of 39.6 µM.
`O=C1C(Br)=CC2(C=C1Br)CCNC1=C2C(=O)c2ncccc2C1=O` gave a TGI of 2.78 µM.
`CC(=O)OCC1OC(n2c(C)c(N=Nc3ccc(Cl)cc3)c(C)c(C#N)c2=S)C(OC(C)=O)C(OC(C)=O)C1OC(C)=O` (stereo unspecified) was tested, and the TGI was greater than 100 µM.
`CCCCC1Cc2cc(O)ccc2-c2nc3cc(O)ccc3n21` (stereo unspecified) (tested in a mixture with another compound) gave a TGI of 37.5 µM.
`CC(NC(=O)c1c(O)[nH]c(=S)[nH]c1=O)c1ccc([N+](=O)[O-])cc1` (stereo unspecified) showed a TGI greater than 100 µM.
`CC(=O)c1c(N=[N+]=[N-])c2cccc3c2n(c1=O)CCC3` gave a TGI of 62.5 µM.
With `Cn1nnnc1SC(F)(F)c1nc2ccccc2o1` the TGI was greater than 100 µM.
`CCCCCCCCCCCC(=O)OC[C@@H](C[As](=O)(O)O)OC(=O)CCCCCCCCCCC` was tested, and the TGI was 9.24 µM.
`C/C=C\C(CC(=O)NCC(=O)c1c[nH]c2ccccc12)CC(=O)OC` (stereo unspecified) was tested, and the TGI was greater than 100 µM.
`CC(=O)c1ccc2c(c1)C(=O)c1sc(C(C)=O)cc1C2=O` showed a TGI of 4.7 µM.
Work on `O=[N+]([O-])c1c(F)c(F)c2c(c1F)N(CCCCCl)c1ccccc1S2` yielded a TGI of 11.9 µM.
Work on `Cc1ccnc2c1C(=O)C1=C(OC(C)(C)CC1O)C2=O` (stereo unspecified) yielded a TGI of 7.94 µM.
For `CN1CCc2c(sc3[nH]c(=S)[nH]c(=S)c23)C1`, the TGI was greater than 100 µM.
For `CCOC(=O)c1c(OCC)[nH]c(=O)c(C(c2cccs2)c2c(O)c(C(=O)OCC)c(OCC)[nH]c2=O)c1O`, the TGI was 53.9 µM.
`CC(=O)Nc1c(C(=N)C#N)ncn1CCO` showed a TGI greater than 100 µM.
Work on `O=P1(Cc2ccccc2)N(Cc2ccccc2)[C@@H]2CCCC[C@H]2N1Cc1ccccc1` yielded a TGI of 23.3 µM.
`CN1CCCOC(c2ccc(Cl)cc2)O1` (stereo unspecified) gave a TGI greater than 100 µM.
Compound `Cc1c2ccc3ccccc3c2c[n+]2ccccc12` has a TGI greater than 87.3 µM.
